According to PubChem BioAssay AID2004 (Sanford-Burnham Center for Chemical Genomics, 2009):

biological target: Dual specificity protein phosphatase 3 (Homo sapiens) (UniProt P51452); experiment: PubChem AID 2004; settings: recombinant VHR phosphatase, colorimetric substrate read-out
Sequence (P51452 whole entry, looked up): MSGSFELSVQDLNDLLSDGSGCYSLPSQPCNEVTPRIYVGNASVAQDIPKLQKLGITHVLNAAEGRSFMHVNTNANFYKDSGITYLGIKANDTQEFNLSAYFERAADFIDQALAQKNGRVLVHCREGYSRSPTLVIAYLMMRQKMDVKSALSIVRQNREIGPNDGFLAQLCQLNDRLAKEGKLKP

| SMILES | Ki [µM] |
| --- | --- |
| COc1ccc(N2C(=O)/C(=C/c3ccc(I)o3)C(=O)NC2=S)cc1 | 4.44 |
| O=C1NC(=S)N(c2ccc(F)cc2)C(=O)/C1=C/c1ccc(Br)o1 | 12.1 |
| O=C(/C=C/c1ccc(-c2ccccc2[N+](=O)[O-])o1)Nc1ccc(-c2nc3ccccc3o2)cc1 | 1.76 |
| O=C(/C=C/c1ccco1)/C=C/c1ccc(-c2ccc(Cl)c(Cl)c2)o1 | 15.9 |
| Cc1ccc(C)n1-c1ccc(SCC(=O)O)cc1 | 2.09 |
| CCOC(=O)c1[nH]nc2c1C(=O)N(c1ccc(Br)cc1)C2=O | 2.64 |
| COc1ccc(OC)c2c1C(=O)c1ccccc1C2=O | 3.07 |
| O=c1[nH]c(=S)n(-c2cccc(Cl)c2)c(O)c1/C=C1/C=CC=N1 | 3.49 |
| O=C(O)c1cccc(-c2ccc(/C=N/Nc3ccc([N+](=O)[O-])cn3)o2)c1 | 13.8 |
| S=C(Nc1ccc2c(c1)oc1ccccc12)Nc1cccc2ccccc12 | 2.94 |
| C=CCN1C(=O)/C(=C\C=C\c2ccco2)C(=O)NC1=S | 15.8 |
| O=C(O)C(Cc1ccccc1)N1C(=O)/C(=C/C=C/c2ccccc2)SC1=S (stereo not drawn) | 2.01 |
| CC1=C(C#N)c2nc(N)c(C#N)c(C)c2/C1=C/c1ccc(-c2ccc(C(=O)O)c(Cl)c2)o1 | 3.87 |
| O=C1NC(=O)N(c2cccc(Br)c2)C(=O)/C1=C/c1ccc(-c2ccc(C(=O)O)cc2)o1 | 16.2 |
| Cc1ccc(C)n1-c1ccc(C(=O)O)c(O)c1 | 12.8 |
| O=C1c2cccc3c4ccccc4n(c23)C(=O)C1(O)O | 13.8 |
| O=C1/C(=C/C=C/c2ccccc2)SC(=S)N1CCS(=O)(=O)O | 0.809 |
| O=C1C(Cl)=C/C(=N\S(=O)(=O)c2ccc(Cl)cc2)C(Cl)=C1Cl | 13.4 |
